Experimental data from US10973772B2, “Targeted delivery of hydrophilic drugs” (Double Bond Pharmaceuticals AB, priority 2014, dated 2021).
Counter-ions that a name gives are not always drawn. Like-named read-outs stand apart in the source and are kept apart here.

How the values were obtained:
[1] = female, Wistar, rat, in vivo, 5 mg/kg, 2 h
[2] = Californian, rabbit, in vivo, 5 mg/kg, 0.5 h
[3] = In vivo distribution of doxorubicin in Californian rabbit liver; settings: intravenous, 5 mg/kg
[4] = In vivo distribution of doxorubicin in the liver of Wistar rats; settings: female, rat, intravenous, 5 mg/kg
[5] = Solubility in aqueous ethanol (UV method); assay type: physicochemical
Method: Solubility in aqueous ethanol was determined by centrifuging an adequate amount of freshly obtained colloid at 3000 rpm for 30-90 min, decanting the supernatant, adding 10 mL water and shaking the mixture, then repeating centrifugation, shaking and washing 3 times. The centrifugate from the final centrifugation was air dried for 72 h at room temperature followed by drying in vacuo for 24 h. A portion of the dried centrifugate (20 mg) was resuspended in 6 mL aqueous ethanol by stirring at room temperature for 24 h. The mixture was centrifuged at 3000 rpm for 10 min and the supernatant filtered through a 0.2 micrometer filter to remove aggregates of undissolved solid product. The solubility of the compound was determined by a UV method.

[6] = rabbit ear vein; 1.25 mg doxorubicin/kg vs 5.0 mg doxorubicin/kg doxorubicin hydrochloride
Method: FIG. 9 are graphs illustrating doxorubicin concentration in the liver and the heart upon intravenous injection of 5 mg/kg aqueous doxorubicin hydrochloride and of 1.25 mg/kg of the composition of the invention according to Example 1.
The doxorubicin composition of the invention according to Example 1 (R═C16 sulfonate) was administered to Californian rabbits by injection into the ear vein at a concentration of 1.25 mg doxorubicin/kg body weight. For comparison aqueous doxorubicin hydrochloride was administered in the same manner at a concentration of 5.0 mg doxorubicin/kg body weight.

Increase of doxorubicin concentration in liver tissue [1]	Increase of doxorubicin concentration in liver tissue [2]	concentration at 0.5 h [3] [ng/g]	concentration at 2 h [4] [ng/g]	Solubility ([5]; colloid doxorubicin alkyl sulfates and alkane sulfonates in 30% ethanol (v/v)) [µg/mL]	Solubility in 30% ethanol ([5]; doxorubicin salts, 30% ethanol (Table 5)) [µg/mL]	Delivery of doxorubicin to the heart versus aqueous doxorubicin hydrochloride [6]	Efficiency of delivery of doxorubicin to the liver versus aqueous doxorubicin hydrochloride [6]	SMILES
(1) times	(1) times	0.392 ± 0.128	11.5 ± 2.98	–	–	–	–	COc1cccc2c1C(=O)c1c(O)c3c(c(O)c1C2=O)C[C@@](O)(C(=O)CO)C[C@@H]3O[C@H]1C[C@H](N)[C@H](O)[C@H](C)O1 [Cl^−, doxorubicin hydrochloride]
–	–	–	–	11.94	11.94	no difference	about four	CCCCCCCCCCCCCCCCS(=O)(=O)O.COc1cccc2c1C(=O)c1c(O)c3c(c(O)c1C2=O)C[C@@](O)(C(=O)CO)C[C@@H]3O[C@H]1C[C@H](N)[C@H](O)[C@H](C)O1 [doxorubicin alkane sulfonate n=16]
